What is called IC50 is the concentration needed to halve the response being measured.

Among the data in patent publication US20240409585A1, “MACROCYCLIC IMMUNOMODULATORS” (priority 2021, published 2024) are IC50 values, retold here.

Each structure is given as a SMILES string. Numbered stars: 1 amine (or outer) side, 2 acyl side, 3 side chain; on linkers, the order of the positions; unused ones are H or OH. Bridge positions count the residues as written; N and C are the ends. Square brackets hold non-standard residues; d marks the D form. Peptide text beside a SMILES is read from it. * marks the point of attachment. X29 = O=C([C@H](Cc1ccc(-c2cc(F)cc(F)c2)cc1)N[*:1])[*:2]; Phe(4-COOH) = N[C@@H](Cc1ccc(C(=O)O)cc1)C(=O)O; Bip = N[C@@H](Cc1ccc(-c2ccccc2)cc1)C(=O)O; Phe(3-Me) = Cc1cccc(C[C@H](N)C(=O)O)c1; Val(3-OH) = CC(C)(O)[C@H](N)C(=O)O; 2Thi = N[C@@H](Cc1cccs1)C(=O)O; Cha = N[C@@H](CC1CCCCC1)C(=O)O; Cit = NC(=O)NCCC[C@H](N)C(=O)O; Carboxymethyl = O=C(O)C*; NMeA = CN[C@@H](C)C(=O)O; Orn = NCCC[C@H](N)C(=O)O; Dab = NCC[C@H](N)C(=O)O; Piv = CC(C)(C)C(=O)*

The target in the test is T1, PE-labeled human PD-L1-Ig binding to Jurkat cell line over-expressing human PD-1 (Jurkat-PD-1) (Homo sapiens, UniProt Q15116).
T1 construct: expressed in transfected cells; host or cells: Jurkat
T1 sequence (Q15116 25-288): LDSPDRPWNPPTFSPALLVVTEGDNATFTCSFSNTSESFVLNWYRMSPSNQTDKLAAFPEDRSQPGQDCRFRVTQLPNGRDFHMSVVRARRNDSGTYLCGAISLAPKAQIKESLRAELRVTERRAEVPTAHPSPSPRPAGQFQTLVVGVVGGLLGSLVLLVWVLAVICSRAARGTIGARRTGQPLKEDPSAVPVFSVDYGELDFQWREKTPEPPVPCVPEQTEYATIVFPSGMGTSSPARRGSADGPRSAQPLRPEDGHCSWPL
Nature of the test: Jurkat-PD-1 Cell Binding High-Content Screening Assay (CBA): Method 1. As to conditions: Jurkat-hPD-1 cells, PE-labeled PD-L1-Ig 20 nM final; read-out: Jurkat HPDL1 PD1 IC50 (uM) (Method 1).
`CC(C)C[C@@H]1NC(=O)[C@H](CCN)NC(=O)[C@@H](CC(C)C)NC(=O)[C@H](C)N(C)C(=O)[C@H](CCCNC(N)=O)NC(=O)[C@H](Cc2ccc(-c3ccccc3)cc2)NC(=O)[C@H](C(C)C)NC(=O)[C@H](Cc2c[nH]c3ccccc23)NC(=O)[C@H](CC(=O)O)NC(=O)[C@H](Cc2ccc(O)cc2)NC(=O)[C@H](Cc2ccc(C(=O)O)cc2)NC(=O)CSC[C@@H](C(=O)N[C@@H](C)C(N)=O)NC(=O)[C@H]([C@@H](C)O)NC(=O)[C@H](C(C)C)NC1=O` [Compound 1326] ({CH2CO}-[Phe(4-COOH)]YDWV[Bip][Cit][NMeA][dL][Dab]LVTCA-NH2; thioether N-14): the 50% inhibitory concentration (IC50) was determined as 0.02 µM.
On to `CC(C)C[C@H]1NC(=O)[C@H](C)N(C)C(=O)[C@H](CCCN)NC(=O)[C@H](Cc2ccc(-c3ccccc3)cc2)NC(=O)[C@H](C(C)C)NC(=O)[C@H](Cc2c[nH]c3ccccc23)NC(=O)[C@H](CC(=O)O)NC(=O)[C@H](Cc2ccc(O)cc2)NC(=O)[C@H](CC(N)=O)NC(=O)CSC[C@@H](C(=O)N[C@@H](C)C(N)=O)NC(=O)[C@H]([C@@H](C)O)NC(=O)[C@H](C(C)C)NC(=O)[C@H](CC2CCCCC2)NC(=O)[C@H](CCN)NC1=O` [Compound 1278] ({CH2CO}-NYDWV[Bip][Orn][NMeA][dL][Dab][Cha]VTCA-NH2; thioether N-14), for which the half-maximal inhibitory concentration (IC50) stood at 0.01 µM.
The result for `CC(C)C[C@@H]1NC(=O)[C@H](CCN)NC(=O)[C@@H](CC(C)C)NC(=O)[C@H](C)N(C)C(=O)[C@H](CCCNC(N)=O)NC(=O)[C@H](Cc2ccc(-c3ccccc3)cc2)NC(=O)[C@H](C(C)C)NC(=O)[C@H](Cc2c[nH]c3ccccc23)NC(=O)[C@H](CC(=O)O)NC(=O)[C@H](Cc2ccc(O)cc2)NC(=O)[C@H](CC(N)=O)NC(=O)CSC[C@@H](C(=O)N[C@@H](C)C(N)=O)NC(=O)[C@H](CCCN)NC(=O)[C@H](C(C)C)NC1=O` [Compound 1232] ({CH2CO}-NYDWV[Bip][Cit][NMeA][dL][Dab]LV[Orn]CA-NH2; thioether N-14) reads 0.12 µM; that for `Cc1cccc(C[C@@H]2NC(=O)[C@H](CC(=O)O)NC(=O)[C@H](Cc3ccc(OCC(=O)O)cc3)NC(=O)[C@H](Cc3cccs3)NC(=O)CSC[C@@H](C(=O)N[C@@H](CCNC(=O)C(C)(C)C)C(N)=O)NC(=O)[C@H](Cc3cnc[nH]3)NC(=O)[C@H](C(C)(C)O)NC(=O)[C@H](CC3CCCCC3)NC(=O)[C@H](CCN)NC(=O)[C@@H](CC(C)C)NC(=O)[C@H](C)N(C)C(=O)[C@H](Cc3ccc(OCC(=O)O)cc3)NC(=O)[C@H](Cc3ccc(-c4ccccc4)cc3)NC(=O)[C@H](Cc3ccc(C(=O)O)cc3)NC2=O)c1` [Compound 2166] ({CH2CO}-[2Thi]Y(Carboxymethyl)D[Phe(3-Me)][Phe(4-COOH)][Bip]Y(Carboxymethyl)[NMeA][dL][Dab][Cha][Val(3-OH)]HC[Dab](Piv)-NH2; thioether N-14), 0.02 µM; that for `CC(C)C[C@@H]1NC(=O)[C@H](CCCNC(=N)N)NC(=O)[C@@H](CC(C)C)NC(=O)[C@H](C)N(C)C(=O)[C@H](CCCNC(=N)N)NC(=O)[C@H](Cc2ccc(-c3cc(F)cc(F)c3)cc2)NC(=O)[C@H](C(C)C)NC(=O)[C@H](Cc2c[nH]c3ccccc23)NC(=O)[C@H](CC(=O)O)NC(=O)[C@H](Cc2ccc(O)cc2)NC(=O)[C@H](Cc2ccccc2)NC(=O)CSC[C@@H](C(=O)N[C@@H](C)C(N)=O)NC(=O)[C@H]([C@@H](C)O)NC(=O)[C@H](C(C)C)NC1=O` [Compound 1068] ({CH2CO}-FYDWV[X29]R[NMeA][dL]RLVTCA-NH2; thioether N-14), 0.17 µM.
